Data set [1] concerns SARS CoV-2 (USA_WA1/2020). The data set is described as follows: Cytopathic effect (CPE) assay. It is filed as cell-based. The settings on record: for Emax: read-out: Efficacy CPE assay. A general note: Cytopathic effects are the visible damage that an infection or toxin causes in cultured cells.
The test system of another data set is Vero-E6. The data set is described as follows: Cytotoxicity counter screen (cell viability, CellTiter-Glo). Type of data set: cell-based. The settings on record: for IC50: Chlorocebus sabaeus, read-out: IC50 (μM) cell viability. The procedure: Compound cytotoxicity was assessed in a BSL-2 counter screen as follows: Cell culture media (MEM, 1% Pen/Strep/GlutaMax, 1% HEPES, 2% HI FBS) was dispensed at 5 μl/well into ARPs and incubated at room temperature to allow for compound dissolution. Vero-E6 (selected for high ACE2 expression) was dispensed into assay plates at 4000 cells/well in 25 μl media. Assay plates were incubated for 72 h at 37 C, 5% CO2, 90% humidity. Then, 30 μl/well of CellTiter-Glo (Promega #G7573) was dispensed into the assay plate. Luminescence was read using a BMG PHERAstar plate reader following incubation at room temperature for 10 min to measure cell viability.
A general note: Counterscreens check selectivity or assay interference.

Data set [2] is described as follows: Kinetic solubility (Tier I ADME). Particulars: kinetic from dmso stock.
Data set [3] in a line: Rat liver microsomal (RLM) stability. The settings on record: for half-life: rat.
The nature of data set [4]: Parallel artificial membrane permeability assay (PAMPA). The settings on record: for Papp / Permeability: PAMPA; for Permeability: Tier I ADME. (PAMPA measures passive passage across an artificial lipid membrane.)
The nature of the next data set: physchem. Particulars: kinetic from dmso stock.
A further data set in a line: in vitro. The settings on record: PAMPA.
Another data set concerns SARS-CoV-2. The settings on record: EIDD-2801 250 mpk BID; Compound P3 60 mpk BID.
The next data set concerns ZIKV. The settings on record: cited from earlier work.
Data set [5] can be described thus: Pharmacokinetics in mice IV 3 and PO 10 mg/kg; plasma, lung and liver.
[6] abbreviates: Severe acute respiratory syndrome coronavirus 2, Vero C1008, % inhibition of CPE, SARS-CoV-2-infected Vero-E6, 72 h.
Where [7] appears, read: Severe acute respiratory syndrome coronavirus 2, Vero C1008, rescue IC50, SARS-CoV-2-infected Vero-E6, 72 h.
[8] abbreviates: Vero C1008, uninfected Vero-E6, 72 h, CellTiter-Glo.
[9] abbreviates: uninfected Vero-E6, 72 h, CellTiter-Glo.
[10] abbreviates: Severe acute respiratory syndrome coronavirus 2, Vero C1008, 72 h.
[11] abbreviates: mice, Compound P3 dosed PO 10 mg/kg, Liver.
Setting [12] is: mice, Compound P3 dosed PO 10 mg/kg, Plasma.
The mark [13] stands for this setting: mouse Plasma, Compound P3 dosed IV 3 mg/kg.
The mark [14] stands for this setting: mouse Plasma, Compound P3 dosed PO 10 mg/kg.

Molecules are shown by their SMILES. In brackets after ≈: the same amount, converted by molar mass. Like-named read-outs stand apart in the source and are kept apart here.

Excerpt for SARS-CoV-2: EIDD-2801 (molnupiravir) was chosen as the positive control at 250 mpk BID oral dose.

The IC50 is the concentration that inhibits the measured activity by half. What is called solubility is how much of the substance goes into solution per volume. The low end stands for little dissolved substance, the high end for much dissolved substance. Usually half-life stands for the time needed for the level to fall by half in the phase considered. What is called Papp is a coefficient for how fast a substance crosses the barrier. The low end stands for poor permeation, the high end for ready permeation. As for `O=C(Nc1ccc([N+](=O)[O-])cc1Cl)c1cc(Cl)ccc1OC1CCNCC1` [Compound 4, 5-chloro-N-(2-chloro-4-nitrophenyl)-2-(piperidin-4-yloxy)benzamide], the Emax in data set [1] (setting [6]) was -8.3%. Also, the IC50 was 5.1 µM in data set [1] (setting [7]) and 4.05 µM in the data set on Vero-E6 (setting [8]). The concentration in solution in [2] (solubility) was 8.4 µg/mL (≈ 20.5 µM). The half-life in data set [3] (rat liver microsomes) was more than 30 min. The molecule further gave a Papp in data set [4] of 5160 nm/s.

Turning to `O=C(Nc1ccc([N+](=O)[O-])cc1)c1cc(Cl)ccc1O` [Compound 24, 5-chloro-2-hydroxy-N-(4-nitrophenyl)benzamide], the IC50 in the data set with Vero-E6 (Vero C1008, 72 h) came to 0.57 µM. This molecule also had an Efficacy cell viability in the data set with Vero-E6 (setting [9]) of −93.1. The “RLM stability (T1/2 min)” value in data set [3] (rat liver microsomes) is 22 min. Also, the Permeability in data set [4] is listed as 127.13 10^−6 cm/sec.

As for `COc1cc([N+](=O)[O-])ccc1NC(=O)c1cc(Cl)ccc1O` [Compound 27, 5-chloro-2-hydroxy-N-(2-methoxy-4-nitrophenyl)benzamide], the concentration for half-maximal inhibition (IC50) in the data set with Vero-E6 (Vero C1008, 72 h) was determined as 0.64 µM. For the same molecule, in the data set on Vero-E6 (setting [9]), the Efficacy cell viability is on record as −92.9. Also, the half-life in data set [3] (microsomes) was more than 30 min. Besides, the Permeability in data set [4] was 334.4 10^−6 cm/sec.

Regarding `N#Cc1ccc(NC(=O)c2cc(Cl)ccc2O)c(Cl)c1` [Compound 32, 5-chloro-N-(2-chloro-4-cyanophenyl)-2-hydroxybenzamide], the concentration for half-maximal inhibition (IC50) in the data set with Vero-E6 (setting [8]) was 1.01 µM. Further, the Efficacy cell viability in the data set on Vero-E6 (setting [9]) is given as −99.6. The half-life in [3] (rat liver microsomes) was more than 30 min. Further, the apparent permeability coefficient (Papp) in data set [4] came to 51.6 nm/s.

`O=C(Nc1ccc(C(F)(F)F)cc1)c1cc(Cl)ccc1O` [Compound 39, 5-chloro-2-hydroxy-N-(4-(trifluoromethyl)phenyl)benzamide]: the IC50 in the data set on Vero-E6 (Vero C1008, 72 h) amounted to 0.45 µM. This molecule also came in with an Efficacy cell viability in the data set on Vero-E6 (setting [9]) of −94.6. This molecule returned a half-life in data set [3] (microsomes) of more than 30 min. In addition, in [4], the Papp came to 223 nm/s.

For `O=C(Oc1ccc(Cl)cc1C(=O)Nc1ccc([N+](=O)[O-])cc1Cl)c1ccc(C(F)(F)F)cc1` [Compound P1, 4-chloro-2-((2-chloro-4-nitrophenyl)carbamoyl)phenyl 4-(trifluoromethyl)benzoate], in [1] (setting [6]), the Emax was 34%. Also, the IC50 in data set [1] (setting [7]) worked out at 0.11 µM; in the data set on Vero-E6 (setting [8]) it was 0.57 µM. Further, in the data set with Vero-E6 (setting [9]), the Efficacy cell viability was −96.34. Besides, the solubility in “physchem” was less than 1 µg/mL. This molecule also gave a Papp in “in vitro” of less than 26 nm/s.

For `CCCCCCCC(=O)Oc1ccc(Cl)cc1C(=O)Nc1ccc([N+](=O)[O-])cc1Cl` [Compound P2, 4-chloro-2-((2-chloro-4-nitrophenyl)carbamoyl)phenyl octanoate], the Emax in data set [1] (setting [6]) is 36.5%. The IC50 in data set [1] (setting [7]) was determined as 0.1 µM; in the data set with Vero-E6 (setting [8]), 0.57 µM. For the same molecule, in the data set with Vero-E6 (setting [9]), the Efficacy cell viability was −95.8. In “physchem”, the solubility turned out to be 1.1 µg/mL (≈ 2.43 µM). This molecule also displayed a Papp in “in vitro” of less than 65 nm/s.

As to `CC(=O)Oc1ccc(Cl)cc1C(=O)Nc1ccc([N+](=O)[O-])cc1Cl` [Compound P4, 4-chloro-2-((2-chloro-4-nitrophenyl)carbamoyl)phenyl acetate], the Emax in data set [1] (setting [6]) was 36.2%. In addition, the IC50 in data set [1] (setting [7]) was determined as 0.25 µM; with Vero-E6 (setting [8]), 0.57 µM. This molecule returned an Efficacy cell viability in the data set on Vero-E6 (setting [9]) of −93.0. In addition, the solubility in “physchem” is less than 1 µg/mL. The same molecule yielded a Papp in “in vitro” of 6320 nm/s.

Consider `COCC(=O)Oc1ccc(Cl)cc1C(=O)Nc1ccc([N+](=O)[O-])cc1Cl` [Compound P5, 4-chloro-2-((2-chloro-4-nitrophenyl)carbamoyl)phenyl 2-methoxyacetate], for which, in [1] (setting [6]), the Emax stood at 37%. The IC50 in [1] (setting [7]) came to 0.11 µM; in the data set with Vero-E6 (setting [8]) it was 0.51 µM. In the data set with Vero-E6 (setting [9]), this molecule showed an Efficacy cell viability of −91.2. In the data set “physchem”, this molecule yielded a solubility of less than 1 µg/mL.

Turning to `CC(C)OC(=O)Oc1ccc(Cl)cc1C(=O)Nc1ccc([N+](=O)[O-])cc1Cl` [Compound P6, 4-chloro-2-((2-chloro-4-nitrophenyl)carbamoyl)phenyl isopropyl carbonate], the Emax in [1] (setting [6]) amounted to 37.1%. Further, the IC50 is 0.11 µM in data set [1] (setting [7]) and 0.45 µM in the data set on Vero-E6 (setting [8]). Further, the Efficacy cell viability in the data set on Vero-E6 (setting [9]) is on record as −82.3. Moreover, the solubility in the data set “physchem” is less than 1 µg/mL. In “in vitro” (pH 5), this molecule registered a Papp of 570 nm/s.

For the molecule `O=C(Oc1ccc(Cl)cc1C(=O)Nc1ccc([N+](=O)[O-])cc1Cl)c1ccccc1` [Compound P7, 4-chloro-2-((2-chloro-4-nitrophenyl)carbamoyl)phenyl benzoate], the Emax in [1] (setting [6]) amounted to 26.9%. Further, the results for the IC50 (in [1] (setting [7]); in the data set on Vero-E6 (setting [8])) were 0.13 µM and 0.32 µM, respectively. In addition, in the data set with Vero-E6 (setting [9]), the Efficacy cell viability is −94.0. Moreover, the solubility in “physchem” is less than 1 µg/mL.

For the molecule `CCOP(=O)(OCC)Oc1ccc(Cl)cc1C(=O)Nc1ccc([N+](=O)[O-])cc1Cl` [Compound P8, 4-chloro-2-((2-chloro-4-nitrophenyl)carbamoyl)phenyl diethyl phosphate], in data set [1] (setting [10]), the IC50 came to 0.41 µM and the Emax turned out to be 36.8%. The IC50 with Vero-E6 (Vero C1008, 72 h) stood at 0.91 µM. The molecule further displayed an Efficacy cell viability in the data set on Vero-E6 (setting [9]) of −90.6. In addition, the solubility in [2] was less than 1 µg/mL. The molecule further showed a half-life in [3] (microsomes) of more than 30 min. The apparent permeability (Papp) in data set [4] worked out at 9820 nm/s.

On to `CC(C)COC(=O)Oc1ccc(Cl)cc1C(=O)Nc1ccc([N+](=O)[O-])cc1Cl` [Compound P9, 4-chloro-2-((2-chloro-4-nitrophenyl)carbamoyl)phenyl isobutyl carbonate], for which, in [1] (setting [6]), the Emax came out at 35.2%. Further, the half-maximal inhibitory concentration (IC50) was found to be 0.13 µM in [1] (setting [7]) and 0.57 µM with Vero-E6 (setting [8]). Besides, in the data set on Vero-E6 (setting [9]), the Efficacy cell viability was −91.0. In addition, in the data set “physchem”, the solubility was found to be 4.48 µg/mL (≈ 10.5 µM).

As for `CC(C)C(=O)OC[C@H]1O[C@@H](n2ccc(NO)nc2=O)[C@H](O)[C@@H]1O` [EIDD-2801, reference compound], in the data set with SARS-CoV-2, the “IHC immunoreactivity staining in the right lung” value was “lowered in severity”.

As usually defined, the Cmax is the peak of the concentration-time curve. A word on the t½: it is how long it takes for the measured level to halve. Higher therefore signals slow decline. For orientation: AUC(0-inf) means the area under the concentration-time curve extrapolated to infinity. A high value points to more exposure. For orientation: AUC(0-t) means exposure summed from dosing to a finite time, without extrapolation to infinity. Low values mean less exposure, high ones more exposure. A word on the Tmax: it is the time from dosing to the highest level. For the molecule `O=C(Nc1ccc([N+](=O)[O-])cc1Cl)c1cc(Cl)ccc1O` [Niclosamide, 5-chloro-N-(2-chloro-4-nitrophenyl)-2-hydroxybenzamide, reference compound], the ZIKV growth entry in the data set on ZIKV (early stages and 24 h post infection) was “inhibited ZIKV growth”. In addition, the ZIKV titer entry in the data set with ZIKV (human placental epithelial cells and iPSC-derived human neural progenitor cells) is “reduced ZIKV titer”. Further, in data set [3] (rat liver microsomes), the “RLM stability (T1/2 min)” value is reported as more than 30 min and the half-life was more than 30 min. Also, the “permeability in PAMPA” value in data set [4] (result in words) is on record as “unable to be quantified in the acceptor compartment”. Besides, in data set [5] (setting [11]), the “AUC_% Extrap” value is 4.4% and the t1/2 was determined as 438 min. For the same molecule, the “AUC_% Extrap” value in data set [5] (mice, Compound P3 dosed PO 10 mg/kg, Lung) is listed as 0.6%. In data set [5] (setting [12]), the AUC0-INF amounted to 1.62 µg·h/mL and the “AUC_% Extrap” value turned out to be 1.0%. In [5] (setting [13]), this molecule came in with an AUC_%Extrap_obs of 0.3%, a Clast of 0.000329 µg/mL and a Tlast of 30 h. In data set [5] (setting [14]), this molecule showed an AUCINF_obs of 1.62 µg·h/mL, an AUC_%Extrap_obs of 1.0%, a Clast of 0.00404 µg/mL and a maximum concentration (Cmax) of 0.346 µg/mL. Besides, in data set [5] (setting [14]), the Tlast came to 30 h and the t½ came out at 162 min. In [5] (mouse, liver, po, 10 mg/kg), this molecule registered an AUC(0-inf) of 9.25 µg·h/mL, an AUC(0-t) of 8.85 µg·h/mL and a Cmax of 0.882 µg/mL. Also, in data set [5] (mouse, lung, po, 10 mg/kg), the AUC(0-inf) stood at 3.08 µg·h/mL, the area under the curve AUC(0-t) is 3.06 µg·h/mL, the peak concentration (Cmax) is 0.397 µg/mL and the half-life was 258 min. In data set [5] (mouse, plasma, iv, 3 mg/kg), the total exposure AUC(0-inf) amounted to 0.587 µg·h/mL, the AUC(0-t) is 0.585 µg·h/mL, the highest level (Cmax) was 0.168 µg/mL and the Tmax was found to be 4.98 min. In addition, the half-life in [5] (mouse, plasma, iv, 3 mg/kg) was 216 min. In data set [5] (mouse, plasma, po, 10 mg/kg), the area under the curve AUC(0-t) stood at 1.6 µg·h/mL and the half-life was 162 min.

Values taken from patent publication US20240002332A1, “Small Molecule Inhibitors of SARS-CoV-2 Infections” (priority 2020, published 2024).
